Source: patent US20240228482A1, “COMPOUNDS, COMPOSITIONS AND METHODS OF TREATING CANCER” (HOTSPOT THERAPEUTICS, INC., priority 2021, published 2024)

Molecular target: T1, CBL-B (Homo sapiens, UniProt Q13191)
T1 construct: GST
Experiment: CBL-B TR-FRET IC50 screening (E1/E2 ubiquitination, Biotin-Ubiquitin, Anti GST-Tb donor / Streptavidin-d2 acceptor)
Type: biochemical
Details: second part of Table 2 (head 'Patent Cmpd No / Updated Activity'); same CBL-B TR-FRET IC50 bins A-F; read-out: Updated Activity

T1 sequence (Q13191 whole entry): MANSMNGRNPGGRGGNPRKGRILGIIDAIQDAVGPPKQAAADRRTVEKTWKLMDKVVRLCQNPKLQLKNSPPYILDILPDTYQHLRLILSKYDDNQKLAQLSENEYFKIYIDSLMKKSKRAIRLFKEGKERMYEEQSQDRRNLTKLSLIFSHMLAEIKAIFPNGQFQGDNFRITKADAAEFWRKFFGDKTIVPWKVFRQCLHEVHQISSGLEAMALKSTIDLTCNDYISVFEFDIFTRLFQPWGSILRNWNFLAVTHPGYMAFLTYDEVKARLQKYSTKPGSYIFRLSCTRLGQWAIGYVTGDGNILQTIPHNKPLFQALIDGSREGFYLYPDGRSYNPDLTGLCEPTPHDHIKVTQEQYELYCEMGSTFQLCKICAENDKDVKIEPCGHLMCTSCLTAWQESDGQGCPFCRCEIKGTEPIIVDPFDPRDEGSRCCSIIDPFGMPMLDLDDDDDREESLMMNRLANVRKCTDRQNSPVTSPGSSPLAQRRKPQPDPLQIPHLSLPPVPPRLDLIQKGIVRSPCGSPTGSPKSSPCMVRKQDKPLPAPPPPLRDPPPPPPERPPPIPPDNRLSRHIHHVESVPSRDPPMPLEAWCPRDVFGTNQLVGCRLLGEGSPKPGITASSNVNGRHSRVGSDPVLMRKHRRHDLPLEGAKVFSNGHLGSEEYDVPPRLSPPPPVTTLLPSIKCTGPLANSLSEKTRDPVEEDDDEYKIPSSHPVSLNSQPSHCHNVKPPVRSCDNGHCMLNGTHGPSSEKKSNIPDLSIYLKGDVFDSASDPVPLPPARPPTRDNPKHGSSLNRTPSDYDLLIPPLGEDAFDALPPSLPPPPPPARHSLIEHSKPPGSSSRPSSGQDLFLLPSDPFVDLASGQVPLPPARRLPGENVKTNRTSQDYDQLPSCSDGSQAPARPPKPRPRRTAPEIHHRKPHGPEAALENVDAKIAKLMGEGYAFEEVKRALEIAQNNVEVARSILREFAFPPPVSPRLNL

Compound	IC50
C[C@H]1CCCN(Cc2cc(C(F)(F)F)c3cn(-c4cc([C@@H](c5nncn5C)C5CCC5)ccn4)c(=O)n3c2)C1 [Compound 627_P1]	< 100 nM
C[C@H]1CCCN(Cc2cc(C(F)(F)F)c3cn(-c4cc([C@H](c5nncn5C)C5CCC5)ccn4)c(=O)n3c2)C1 [Compound 627_P2]	1000 to 3000 nM
C[C@H]1CCCN(Cc2cc(C(F)(F)F)c3cn(-c4cncc([C@@H](c5nncn5C)C5CCC5)c4)c(=O)n3c2)C1 [Compound 628_P1]	< 100 nM
C[C@H]1CCCN(Cc2cc(C(F)(F)F)c3cn(-c4cncc([C@H](c5nncn5C)C5CCC5)c4)c(=O)n3c2)C1 [Compound 628_P2]	3000 to 10000 nM
